US20230346827A1 (priority 2020, published 2023)

Tests used:
[1] = in vivo; cited from earlier work
[2] = biological target: T1, oligomeric amyloid-β / PrP^c interaction (Homo sapiens, UniProt P04156); format: binding
[3] = biological target: T1, oligomeric amyloid-β / PrP^c interaction; conditions: cited from earlier work
human purified monocytes = test: Stimulated IL-6 release from human purified monocytes (ELISA); format: cell-based; conditions: 24 h, LMW-DS 60-600 µg/ml, heparin 2.0-20 µg/ml, dexamethasone 3.0 µM
Protocol: Peripheral blood mononuclear cells (PBMC) were isolated from healthy donors through Ficoll-Paque PLUS (GE Healthcare; 11778538) density centrifugation. Monocytes were purified using the EasySep™ human monocyte enrichment kit (StemCell) that purifies monocytes ‘untouched’ to maintain their phenotype.
Monocytes were cultured in the absence (unstimulated PBS vehicle controls) or presence of stimulation (LPS or peptidoglycan) in the absence (vehicle) or presence of LMW-DS (Tikomed AB, Viken, Sweden, WO 2016/076780; three concentrations; top concentration 600 µg/ml, 200 µg/ml and 60 µg/ml), heparin (2.0, 6.0 or 20 µg/ml; equivalent to 0.406, 1.218 and 4.06 units/ml; Sigma Aldrich) or dexamethasone (3.0 µM; Sigma Aldrich) for 24 hours at 37° C., 5% CO2. Following centrifugation, cell culture supernatants were removed and stored at -20° C. awaiting analysis for IL-6 by ELISA. Levels of IL-6 were quantified in the supernatant by ELISA (R&D systems) according to manufacturer’s instructions.

[4] = system: mouse model of muscle atrophy; conditions: after 2 weeks of treatment; cited from earlier work

adalimumab
half-life [1]: around 14 days

certolizumab
half-life [1]: around 14 days

dextran
competition for the protein-protein interaction between oligomeric amyloid-β and PrP^c [2]: failed to compete appreciably

dextran sulphate sodium salt [DSSS]
Competable binding (%) [2]: 101±2% | Hill coefficient [2]: 1.51±0.06 | IC50 [2]: 0.62 ± 0.07 µg/mL | effective concentrations to compete with the amyloid-β / PrP^c interaction [3]: low µg/ml range

heparin [reference compound]
LPS-stimulated IL-6 release (human purified monocytes; LPS 0.01 ng/ml): concentration dependent statistically significant enhancement | peptidoglycan-stimulated IL-6 release (human purified monocytes; peptidoglycan 30 ng/ml): did not reach statistical significance

infliximab
half-life [1]: around 14 days

recombinant HGF: recombinant hepatocyte growth factor
increase in muscle mass [4]: 18%
